Literature values, collected in US20250114344A1, “COMBINATORIAL PHARMACOTHERAPY FOR THE RESTORATION OF NEURO-FUNCTION AND COMBINATORIAL PHARMACOLOGICAL COMPOSITION THEREFORE” (Neuro-Innovators, LLC., priority 2022, published 2025).

What was measured:
[1] = compared with aspirin; fewer hemorrhagic events
CYP3A4 = CYP3A4 (Homo sapiens, UniProt P08684)
MANF (a form of BDNF) = conditions: Prefrontal Cortex and Striatum, compared to controls

Sequence of CYP3A4 (P08684 whole entry, species assumed): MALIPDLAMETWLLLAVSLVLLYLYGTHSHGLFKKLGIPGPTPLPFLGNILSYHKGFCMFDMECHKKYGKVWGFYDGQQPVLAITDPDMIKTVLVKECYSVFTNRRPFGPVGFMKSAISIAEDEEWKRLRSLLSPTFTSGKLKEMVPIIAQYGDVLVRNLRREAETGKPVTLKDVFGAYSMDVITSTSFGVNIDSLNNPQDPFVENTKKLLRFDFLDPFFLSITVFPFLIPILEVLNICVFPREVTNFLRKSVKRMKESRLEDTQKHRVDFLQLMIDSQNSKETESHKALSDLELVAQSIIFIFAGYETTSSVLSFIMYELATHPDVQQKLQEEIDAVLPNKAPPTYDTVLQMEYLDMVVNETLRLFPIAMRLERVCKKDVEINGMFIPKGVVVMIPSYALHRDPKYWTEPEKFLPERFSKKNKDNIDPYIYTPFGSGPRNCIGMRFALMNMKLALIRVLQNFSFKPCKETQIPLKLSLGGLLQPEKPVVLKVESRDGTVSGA

| Structure (SMILES) | incidence of recurrent stroke [1] | interaction with CYP3A4 (CYP3A4) | MANF expression (MANF (a form of BDNF)) |
| --- | --- | --- | --- |
| O=C1CCc2cc(OCCCCc3nnnn3C3CCCCC3)ccc2N1 [Cilostazol] | significantly reduce the incidence of recurrent stroke | substrate for CYP3A4 | – |
| O=C([O-])[O-].[Li+].[Li+] [lithium, Lithium Carbonate] | – | – | significant increase |
